Experimental data: publication PMC9845330 (Communications Biology, 2023)
Non-standard residues stand in square brackets, D forms with d. Residues, ends and D or L forms follow the SMILES beside them. *: point of attachment. X1 = O=C(CCCC[C@@H]1SC[C@@H]2NC(=O)N[C@@H]21)NCCCOCCOCCOCCCN*; PEG12 = NCCOCCOCCOCCOCCOCCOCCOCCOCCOCCOCCOCCOCCC(=O)O

What was measured:
[1] = Stability in human serum; format: in vitro ADME; details: 100% human serum, 48 h, 37 °C, serum proteins precipitated, analytical HPLC, MALDI TOF/TOF MS
Experimental: To address if acetylation is effective in reducing serum degradation of MGS4, acetylated (MGS4_V8) and non-acetylated (MGS4_V4) peptides were dissolved in human serum and incubated for 48 h at 37 °C. The peptides were monitored by analytical HPLC, and products were verified via MALDI TOF/TOF™ MS. […] Instead, a mixture of peptide fragments is detected, none of which correspond to the mass of the starting peptide (Supplemental Table 1 and Supplemental Fig. 2). The major products are shorter fragments corresponding to the loss of the five N-terminal amino acids. Fragments related to QSFYT-PEG11, SFYT-PEG11 and FYT-PEG11 are observed.
Supplemental Figure 1. […]
M GS4_V4 (non-acetylated, panel a) and M GS4_V8 (acetylated, panel b ) were incubated in 100% human serum for 0 and 48-hours. Serum proteins were precipitated, and the peptide was analyzed by analytical
HPLC. The mass of the peptide and degradation products were determined by MALDI MS and are […]
MGS4_V8, MGS4_V9, or MGS4_V10 were conjugated with streptavidin-Alexa Fluor 650 and were incubated with the indicated cell line for 1 hour. Non-internalized peptide was rem ov ed, and the mean number of peptides internalized per cell was determined to calculate the EC50. […]
Supplemental Figure 4 : Peptide-Streptavidin conjugates are nontoxic to cells. a. […] After 72 hours, viability was measured. […]

[2] = test system: Lysosome labelled H1299 cells; assay: Colocalization with lysosomes by confocal microscopy; format: cell-based, human; details: 24 h, Streptavidin Alexa Fluor 555 conjugate
Experimental: Lysosome-labelled cells (green) were treated with MGS4_V8-Streptavidin Alexa Fluor 555 for 30 min, 1 h, 4 h, or 24 h. Peptide-containing vesicles (red) are seen at 30 min separate from the labeled lysosomes, which by 1 h have started to colocalize with lysosomal vesicles (yellow). MGS4_V8 remains colocalized with lysosomes at 24 h with >70% of the signal colocalized with lysosomes (Fig. 3b). Trafficking, accumulation, and retention in the lysosomes is even more evident in the compressed maximally projected z-stack of the cells (Fig. 3c). Of note, lysosomal regeneration is observed at 24 h as witnessed by increased green signal from the GFP that is not colocalized with previously internalized MGS4_V8. […]
The time course for lysosomal accumulation was performed by imaging at indicated time points using biotinylated peptide conjugated to Streptavidin-Alexa Fluor 555, Streptavidin-Qdot605, or streptavidin-saporin. Saporin was detected using anti-saporin rabbit polyclonal antibody AB-41AP (1:100 dilution) (Advanced Targeting Systems Bio, San Diego, CA). […] Each pixel of a single slice was evaluated for passing the threshold in red (box 1), green (box 2), or both (box3) for colocalization. Mander’s coefficients are calculated for each slice with 0 indicating no colocalization and 1 being complete colocalization.

## CC(=O)N[C@@H](Cc1ccccc1)C(=O)N[C@@H](Cc1c[nH]cn1)C(=O)N[C@@H](C)C(=O)N[C@H](C(=O)N1CCC[C@H]1C(=O)N[C@@H](CCC(N)=O)C(=O)N[C@@H](CO)C(=O)N[C@@H](Cc1ccccc1)C(=O)N[C@@H](Cc1ccc(O)cc1)C(=O)N[C@H](C(=O)NCCOCCOCCOCCOCCOCCOCCOCCOCCOCCOCCOCCOCCC(=O)N[C@@H](CCC(=O)NCCCOCCOCCOCCCNC(=O)CCCC[C@@H]1SC[C@@H]2NC(=O)N[C@@H]21)C(N)=O)[C@@H](C)O)C(C)C [MGS4_V8] (Ac-FHAVPQSFYT[PEG12]E(X1)-NH2)
[1]
  peptide after incubation in human serum: only full-length peptide observed
[2]
  signal colocalized with lysosomes: > 70%
